# Assay results: PubChem BioAssay (NCI)
# Several values for one entry are separate records, joined by “and”; a condition that tells them apart may be missing. Equal entries are not always repeated.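 Protocol summary: plate cells (96-well), add compound at 5 concentrations, incubate 48 h, interpolate endpoints linearly. GI50 = concentration required for 50% inhibition of growth. Definition used: TGI = concentration required for complete inhibition of growth.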
# Legend:
# Test in all cases: NCI-60 cell line screen, 48 h
# [1] = test system: DU-145 prostate
# [2] = test system: EKVX NSCLC
# [3] = test system: HL-60(TB) leukemia
# [4] = test system: HS 578T breast
# [5] = test system: IGROV1 ovarian
# [6] = test system: M14 melanoma
# [7] = test system: MCF7 breast
# [8] = test system: SN12C renal
# [9] = test system: SNB-75 CNS
# [10] = test system: SR leukemia
Structure (SMILES),TGI [1] [µM],TGI [2] [µM],TGI [3] [µM],TGI [4] [µM],TGI [5] [µM],TGI [6],TGI [7],TGI [8] [µM],TGI [9] [µM],TGI [10] [µM],GI50 [2] [µM],GI50 [4] [µM],GI50 [9] [µM],GI50 [1] [µM],GI50 [3],GI50 [5] [µM],GI50 [6],GI50 [7] [µM],GI50 [8] [µM],GI50 [10] [µM]
COc1ccc(S(=O)(=O)NC(CCC(=O)NC(N)=O)C(=O)NC(N)=O)cc1 (stereo not drawn),> 100,> 100,> 100,> 100,> 100,> 100 µM,> 100 µM,> 100,> 100,> 100,–,–,–,–,–,–,–,–,–,–
CC1(C)C(=O)/C(=C/c2ccccc2)C(C)(C)C1(C)C,> 100,> 100,46.7,> 100,> 100,> 100 µM,> 100 µM,> 100,> 100,> 74.2,–,–,–,–,–,–,–,–,–,–
CCNC(=S)N/N=C(/C)c1cccc(/C(C)=N\NC(=S)NCC)n1,> 36.6,> 52.7,7.9,> 96.6,> 64,19.9 µM,31.2 µM,> 65.6,> 73.2,> 15.7,–,–,–,–,–,–,–,–,–,–
COc1ccc2oc(=O)c(-c3cc4c(c(C)n3)c(=O)oc3ccc(OC)cc34)cc2c1,> 100,> 100,> 100,83.5,> 100,> 100 µM,> 100 µM,> 100,> 100,> 100,–,–,–,–,–,–,–,–,–,–
Cc1cc2nc(N3C(=O)/C(=C/Cc4ccco4)N=C3c3ccccc3)sc2cc1C,> 100,> 100,46.1,> 100,> 100,> 100 µM,40.4 µM,87.9,59.9,> 100,–,–,–,–,–,–,–,–,–,–
O=C(/C=C/c1ccccc1)c1cc(CN2CCOCC2)c(O)c(CN2CCOCC2)c1,29.8,98.5,27.4,> 100,> 100,43.2 µM,32.4 µM,25.3,38.9,24.2,–,–,–,–,–,–,–,–,–,–
COc1cccc2c(=O)oc(-c3ccccc3C)nc12,> 100,> 100,> 100,> 100,96.8,–,> 100 µM,69.4,> 100,> 100,–,–,–,–,–,–,–,–,–,–
CN(Cc1cnc2nc(N)nc(N)c2n1)c1ccc(C(=O)NC(CCC(=O)O)C(=O)O)c2ccccc12 (stereo not drawn),> 1000,> 1000,> 1000,> 1000,> 1000,> 1000 µM,> 1000 µM,> 1000,–,> 1000,> 1000,> 1000,> 85.6,–,–,–,–,–,–,–
Cn1c(CO)ccc1-c1ccc(-c2ccc(CO)[se]2)[se]1,> 100,> 100,> 59.1,> 100,12.4,> 73.8 µM,> 40 µM,> 100,> 100,> 100,–,–,–,–,–,–,–,–,–,–
C/C(=N\NC(=S)NC(C)(C)C)c1nc2ncccc2[nH]1,> 57.5,> 65,> 21.6,> 30.2,50.6,> 100 µM,> 100 µM,> 100,> 84.5,> 72.2,–,–,–,–,–,–,–,–,–,–
CC(=O)OC12c3ccccc3C(c3ccccc31)C1C(=O)N(N=C(C)C)C(=O)C12 (stereo not drawn),> 100,> 100,> 100,> 100,> 100,> 100 µM,> 100 µM,> 100,> 100,> 100,–,–,–,–,–,–,–,–,–,–
C[n+]1c2ccccc2n2c3ccccc3c(NCCCn3ccnc3)c(C#N)c21,15.5,24.1,20.3,6.78,–,5.23 µM,> 34 µM,4.09,4.66,> 100,–,–,–,–,–,–,–,–,–,–
N#Cc1cc(F)cc(Oc2ccc(S(=O)(=O)C(F)F)c3c2CC(F)(F)[C@H]3O)c1,> 100,> 100,87.2,> 100,> 100,> 100 µM,> 100 µM,> 100,67.3,> 100,25.3,28.5,12.6,36.1,27.4 µM,37.4,30.1 µM,25.7,28.7,36
Cn1c2c(c3c(=O)[nH]ncc31)Cc1ccccc1-2,50.7,> 100,69,> 100,33.7,38.9 µM,56.5 µM,47.9,34.9,28.4,–,–,–,–,–,–,–,–,–,–
Cc1cc(NC(=O)NC(=O)c2ccccc2NC(=O)CN(C)C)ccc1Oc1ncc(Br)cn1,> 100,> 100,12.5,> 23.9,> 100,> 57.4 µM,> 100 µM,> 100,37.2,> 79.5,–,–,–,–,–,–,–,–,–,–
O=C(O)[C@H]1NC[C@H]2C(Br)=NO[C@@H]12,> 100,> 100,> 100,> 100,> 100,> 100 µM,> 100 µM,> 100,> 100,> 100,–,–,–,–,–,–,–,–,–,–

Structure (SMILES),TGI [1] [µM],TGI [2] [µM],TGI [3] [µM],TGI [4] [µM],TGI [5] [µM],TGI [6],TGI [7],TGI [8] [µM],TGI [9] [µM],TGI [10] [µM],GI50 [2] [µM],GI50 [4] [µM],GI50 [9] [µM],GI50 [1] [µM],GI50 [3],GI50 [5] [µM],GI50 [6],GI50 [7] [µM],GI50 [8] [µM],GI50 [10] [µM]
CC1(C)CCC[C@@]2(C)C1CC[C@@]1(CO)O[C@H](C3=CC(=O)OC3O)C[C@H]12 (stereo partly drawn),17.8,60.3,4.31,38.4,42.5,31.8 µM,26.7 µM,26.6,29.2,7.58,–,–,–,–,–,–,–,–,–,–
COC(=O)[C@H](C)NC(=O)[C@H](NS(=O)(=O)c1nc2ccccc2s1)c1ccccc1,41,> 100,> 100,36.5,> 100,22.9 µM,> 100 µM,–,39.4,> 100,–,–,–,–,–,–,–,–,–,–
CC(=O)Oc1cc2c(cc1OCC(F)(F)F)[C@H]1CC[C@]3(C)[C@@H](OC(C)=O)CC[C@H]3[C@@H]1CC2=O,51.6,> 72.1,34.7,50.4,> 66.8,> 78.6 µM,> 75.6 µM,57.6,52.3,> 77.9,–,–,–,–,–,–,–,–,–,–
O=C(OCCN=c1c2ccccc2ccc2ccccc12)c1cc([N+](=O)[O-])cc([N+](=O)[O-])c1,> 100,> 100,> 100,> 100,> 100,> 100 µM,> 100 µM,> 100,> 100,> 100,–,–,–,–,–,–,–,–,–,–
COC(=O)c1c(O)ccc2c1c1c(n2Cc2ccc(OC)cc2)C(=O)c2ccccc2C1,> 100,–,> 100,> 100,> 100,> 100 µM,> 100 µM,93.3,> 100,> 100,–,–,–,–,–,–,–,–,–,–
O=c1[nH]c2c(Nc3c4ccccc4nc4ccccc34)c([N+](=O)[O-])c(Nc3c4ccccc4nc4ccccc34)c([N+](=O)[O-])c2[nH]1,11.5,5.2,> 23.7,7.12,5.18,4.76 µM,10.2 µM,8.8,7.79,4.07,–,–,–,–,–,–,–,–,–,–
Cc1nnc(SCc2nc(C#N)c(C#N)nc2CSc2nnc(C)s2)s1,29.2,36.5,7.74,> 59.4,33.5,37.6 µM,34.3 µM,38.2,41.1,51.4,–,–,–,–,–,–,–,–,–,–
COC(=O)C(Cc1ccccc1)NC(=O)C(CNC(=O)OCc1ccccc1)C(=O)OCc1ccccc1 (stereo not drawn),> 100,–,> 100,> 100,> 100,> 100 µM and 26.8 µM,> 100 µM and 79.8 µM,> 100,> 100,> 100,–,59,–,–,> 100 µM and 21.6 µM,–,> 100 µM and 10.2 µM,–,–,–
O=C(Nc1ccc(-n2cc(-c3ccncc3)c(-c3ccc(O)c(Cl)c3)n2)cc1)Nc1cc(C(F)(F)F)cc(C(F)(F)F)c1,18.9,15.6,8.09,7.41,18.9,13.6 µM,13.2 µM,16.3,12.6,31.3,3.57,1.94,2.07,5.97,2.98 µM,4.61,3.6 µM,3.3,4.12,6.06
BrC1(c2ccccc2)C[n+]2c(-c3ccccc3)cc(-c3ccccc3)cc2-c2ccccc21 (stereo not drawn),13.2,18.8,0.538,0.872,5.14,15.5 µM,0.735 µM,16.7,0.621,> 42.5,–,–,–,–,–,–,–,–,–,–
OCCN1CCN(c2nc(N3CCCC3)c3nc(Cl)c(NCc4ccccc4)nc3n2)CC1,23.6,25,11.8,31,23.1,7.24 µM,17.2 µM,24.2,8.67,15.2,–,–,–,–,–,–,–,–,–,–
CC(C)Oc1cccc(N2C(CCc3c[nH]c4ccc(Br)cc34)=NS(=O)(=O)c3cnccc32)c1,> 100,> 100,> 100,> 100,–,> 100 µM,> 100 µM,> 100,> 100,> 100,–,–,–,–,–,–,–,–,–,–
O=C(O)CCCc1ccc2c(c1)C(C(=O)O)CC2 (stereo not drawn),> 100,> 100,> 100,> 100,> 100,> 100 µM,> 100 µM,> 100,> 100,> 100,–,–,–,–,–,–,–,–,–,–
Cc1ccc(C(=O)Nc2ccc(CP(=O)(O)O)cc2CP(=O)(O)O)cc1N,> 100,> 100,> 100,> 100,> 100,> 100 µM,> 100 µM,> 100,> 100,> 100,–,–,–,–,–,–,–,–,–,–
O=C(/C=C\c1ccccc1)Oc1ccc(/C=C2\CCC/C(=C\c3ccc(OC(=O)/C=C\c4ccccc4)cc3)C2=O)cc1,> 100,> 100,> 100,> 100,–,> 100 µM,> 100 µM,> 100,> 100,> 100,–,–,–,–,–,–,–,–,–,–
